One experiment has as its target human TLR7 (Homo sapiens (Human), UniProt Q9NYK1). Kind of experiment: TLR7 inhibition reporter assay (HEK-Blue SEAP). Format: cell-based. The settings on record: HEK-Blue cells overexpressing human TLR7, SEAP reporter, gardiquimod 7.5 μM. On the technique in general: In a reporter assay the amount or activity of a reporter protein is the signal.
Another experiment deals with human TLR8 (Homo sapiens (Human), UniProt Q9NR97). The experiment is described as follows: TLR8 inhibition reporter assay (HEK-Blue SEAP).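 Also: SEAP driven by IFN-β minimal promoter carrying NF-κB and AP-1 sites, compounds dosed 0.05 nM to 50 µM for 22 h, inhibition scaled between agonist-plus-DMSO and reference-inhibitor wells.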 As to conditions: read-out: TLR8 IC50; HEK-Blue cells overexpressing human TLR8, SEAP reporter, R848 15.9 μM.
In the next experiment the target is human TLR9 (Homo sapiens (Human), UniProt Q9NR96). Kind of experiment: TLR9 inhibition reporter assay (HEK-Blue SEAP).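 Also: SEAP driven by an IFN-β minimal promoter with NF-κB and AP-1 sites, read after 22 h, compounds dosed 0.05 nM–50 µM, inhibition scaled between agonist plus DMSO and reference-inhibitor wells.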 The settings on record: read-out: TLR9 IC50; HEK-Blue cells overexpressing human TLR9, SEAP reporter, ODN2006 5 nM.

In patent US10544143B2, “4-azaindole compounds” (BRISTOL-MYERS SQUIBB COMPANY, priority 2017, dated 2020) one finds IC50 data, which are given here for 44 compounds.

Chain of human TLR9 (Q9NR96 26-1032): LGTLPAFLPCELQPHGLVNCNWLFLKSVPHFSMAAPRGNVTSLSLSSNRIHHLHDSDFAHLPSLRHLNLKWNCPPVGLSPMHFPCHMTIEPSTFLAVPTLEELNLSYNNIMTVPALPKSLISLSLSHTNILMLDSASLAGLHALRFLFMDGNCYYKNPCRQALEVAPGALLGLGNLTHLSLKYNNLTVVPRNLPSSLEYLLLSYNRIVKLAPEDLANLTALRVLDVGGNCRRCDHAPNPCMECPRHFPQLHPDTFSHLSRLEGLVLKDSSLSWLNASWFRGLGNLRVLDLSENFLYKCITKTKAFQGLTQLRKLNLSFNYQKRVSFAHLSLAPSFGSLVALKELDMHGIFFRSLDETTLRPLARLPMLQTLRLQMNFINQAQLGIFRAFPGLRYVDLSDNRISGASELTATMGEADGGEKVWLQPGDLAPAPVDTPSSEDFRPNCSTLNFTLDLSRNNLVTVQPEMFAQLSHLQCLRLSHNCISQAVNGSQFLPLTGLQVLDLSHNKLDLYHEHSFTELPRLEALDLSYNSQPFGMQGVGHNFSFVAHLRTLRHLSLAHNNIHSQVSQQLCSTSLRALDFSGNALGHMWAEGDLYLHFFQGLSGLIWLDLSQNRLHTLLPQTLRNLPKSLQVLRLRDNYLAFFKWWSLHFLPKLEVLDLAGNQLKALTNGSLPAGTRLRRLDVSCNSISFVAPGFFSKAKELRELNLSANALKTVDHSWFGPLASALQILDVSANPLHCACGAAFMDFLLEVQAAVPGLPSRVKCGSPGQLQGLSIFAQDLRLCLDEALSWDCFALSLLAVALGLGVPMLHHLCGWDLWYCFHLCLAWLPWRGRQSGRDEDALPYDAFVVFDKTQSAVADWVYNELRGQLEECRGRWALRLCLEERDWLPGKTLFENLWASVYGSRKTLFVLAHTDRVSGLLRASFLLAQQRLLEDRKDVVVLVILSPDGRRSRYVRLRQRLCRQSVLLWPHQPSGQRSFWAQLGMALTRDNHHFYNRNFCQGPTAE
Chain of human TLR8 (Q9NR97 27-1041): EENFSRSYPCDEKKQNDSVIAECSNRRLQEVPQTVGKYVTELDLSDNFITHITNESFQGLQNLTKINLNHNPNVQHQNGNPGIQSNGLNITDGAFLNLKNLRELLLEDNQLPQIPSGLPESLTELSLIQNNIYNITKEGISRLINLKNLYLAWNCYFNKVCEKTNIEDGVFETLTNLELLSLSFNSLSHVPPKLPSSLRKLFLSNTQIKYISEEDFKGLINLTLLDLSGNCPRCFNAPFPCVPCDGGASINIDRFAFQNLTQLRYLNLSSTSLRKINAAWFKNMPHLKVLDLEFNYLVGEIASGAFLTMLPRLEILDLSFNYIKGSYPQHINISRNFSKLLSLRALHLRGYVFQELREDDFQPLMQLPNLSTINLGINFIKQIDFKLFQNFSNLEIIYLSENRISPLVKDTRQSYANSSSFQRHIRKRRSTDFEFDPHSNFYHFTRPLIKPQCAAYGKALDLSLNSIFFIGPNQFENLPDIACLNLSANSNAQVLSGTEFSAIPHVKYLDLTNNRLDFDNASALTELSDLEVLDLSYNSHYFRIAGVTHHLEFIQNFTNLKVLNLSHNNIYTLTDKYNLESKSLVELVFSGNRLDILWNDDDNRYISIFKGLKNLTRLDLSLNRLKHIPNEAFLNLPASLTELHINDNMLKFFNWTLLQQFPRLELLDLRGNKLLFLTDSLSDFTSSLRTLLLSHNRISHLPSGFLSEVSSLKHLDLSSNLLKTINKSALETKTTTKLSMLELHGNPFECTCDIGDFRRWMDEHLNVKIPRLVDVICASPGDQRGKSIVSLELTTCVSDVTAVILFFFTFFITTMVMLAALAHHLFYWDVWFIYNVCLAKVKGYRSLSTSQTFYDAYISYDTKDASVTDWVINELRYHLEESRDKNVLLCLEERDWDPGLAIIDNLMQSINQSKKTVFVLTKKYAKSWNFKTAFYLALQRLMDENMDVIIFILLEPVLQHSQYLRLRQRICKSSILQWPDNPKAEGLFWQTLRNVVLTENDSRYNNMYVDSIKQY
Chain of human TLR7 (Q9NYK1 27-1049): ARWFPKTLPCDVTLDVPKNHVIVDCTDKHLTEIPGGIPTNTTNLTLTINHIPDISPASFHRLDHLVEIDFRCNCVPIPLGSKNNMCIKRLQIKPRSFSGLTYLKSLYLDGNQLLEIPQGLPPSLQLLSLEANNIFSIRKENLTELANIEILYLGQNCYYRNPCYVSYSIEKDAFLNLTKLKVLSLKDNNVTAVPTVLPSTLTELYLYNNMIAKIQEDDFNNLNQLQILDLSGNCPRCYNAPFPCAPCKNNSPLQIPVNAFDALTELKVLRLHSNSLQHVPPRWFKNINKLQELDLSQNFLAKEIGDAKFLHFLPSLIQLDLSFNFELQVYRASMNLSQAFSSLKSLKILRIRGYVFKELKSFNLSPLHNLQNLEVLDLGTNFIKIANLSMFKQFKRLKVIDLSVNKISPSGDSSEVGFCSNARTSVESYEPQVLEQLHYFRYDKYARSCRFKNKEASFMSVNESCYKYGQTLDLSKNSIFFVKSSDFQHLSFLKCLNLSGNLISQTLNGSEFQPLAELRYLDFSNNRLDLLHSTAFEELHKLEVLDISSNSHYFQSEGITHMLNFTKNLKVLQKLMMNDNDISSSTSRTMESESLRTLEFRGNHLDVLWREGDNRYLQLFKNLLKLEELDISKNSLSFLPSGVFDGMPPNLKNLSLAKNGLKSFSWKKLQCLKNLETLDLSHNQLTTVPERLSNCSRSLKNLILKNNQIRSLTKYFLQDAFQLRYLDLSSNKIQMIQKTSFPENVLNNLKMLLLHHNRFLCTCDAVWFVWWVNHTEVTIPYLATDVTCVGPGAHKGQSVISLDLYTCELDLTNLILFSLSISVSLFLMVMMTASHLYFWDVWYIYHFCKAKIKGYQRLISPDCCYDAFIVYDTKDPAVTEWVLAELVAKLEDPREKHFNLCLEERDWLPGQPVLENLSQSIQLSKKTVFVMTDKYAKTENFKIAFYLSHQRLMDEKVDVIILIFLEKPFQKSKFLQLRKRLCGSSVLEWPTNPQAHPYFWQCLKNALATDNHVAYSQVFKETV

For the compound `Cc1c(-c2[nH]c3ccc(C4CCNCC4)nc3c2C(C)C)cn(C)c(=O)c1C` [Example 519], the IC50 against human TLR7 is 8.3 nM; at human TLR8, 12 nM; at human TLR9, 362 nM.
Take `COc1cc(-c2[nH]c3ccc(C4CCNCC4)nc3c2C(C)C)cn2ncnc12` [Example 520]: the figures for the IC50 at human TLR7, on human TLR8 and on human TLR9 were 0.8 nM, 7 nM and 285 nM, respectively.
In the same order, the values of `Cc1c(-c2[nH]c3ccc(C4CCNCC4)nc3c2C(C)C)cn2ncnc2c1C` [Example 521] are 0.62 nM, 1.3 nM and 238 nM.
In the case of `Cc1cc(-c2[nH]c3cc(C)c(C4CCNCC4)nc3c2C(C)C)cc(C)n1` [Example 522], the values for the IC50 against human TLR7, at human TLR8 and on human TLR9 were 2.6 nM, 495 nM and 144 nM, respectively.
For `COc1cc(-c2[nH]c3cc(C)c(C4CCNCC4)nc3c2C(C)C)cn2ncnc12` [Example 523] the same measures were 1.2 nM, 147 nM and 1470 nM.
Take `COc1cc(-c2[nH]c3cc(F)c(C4CCNCC4)nc3c2C(C)C)cn2ncnc12` [Example 524]: the values for the IC50 at human TLR7, on human TLR8 and on human TLR9 were 0.88 nM, 6.7 nM and 407 nM, respectively.
As for `Cc1cc2[nH]c(-c3cc(C)c4ncnn4c3)c(C(C)C)c2nc1C1CCNCC1` [Example 525], the IC50 against human TLR7 amounted to 0.18 nM; at human TLR8, 48 nM; on human TLR9 it was 771 nM.
As to `COc1ccc(-c2[nH]c3ccc(C4CCNCC4)nc3c2C(C)C)cc1OC` [Example 526], the 50% inhibitory concentration (IC50) against human TLR7 came to 8.8 nM; on human TLR8 it was 14 nM; on human TLR9 it was 666 nM.
In the same order, the values of `Cc1cc(-c2[nH]c3ccc(C4CCN(C5CCOCC5)CC4)nc3c2C(C)C)cn(C)c1=O` [Example 527] are 7.3 nM, 3 nM and 1160 nM.
For `Cc1cc(-c2[nH]c3ccc(C4CCN(CC(=O)N(C)C)CC4)nc3c2C(C)C)cn(C)c1=O` [Example 529] the same measures were 2.9 nM, 12 nM and 1830 nM.
Regarding `CNC(=O)CN1CCC(c2ccc3[nH]c(-c4cc(C)c(=O)n(C)c4)c(C(C)C)c3n2)CC1` [Example 530], the results for the IC50 against human TLR7, at human TLR8 and at human TLR9 were 7.1 nM, 8.8 nM and 4760 nM, respectively.
For `Cc1cc(-c2[nH]c3ccc(C4CCN(C(=O)CN(C)C)CC4)nc3c2C(C)C)cn(C)c1=O` [Example 531] the same measures were 19 nM, 21 nM and 1290 nM.
For `CNC(=O)CN1CCC(c2ccc3[nH]c(-c4cc(C)c5ncnn5c4)c(C(C)C)c3n2)CC1` [Example 532] the same measures were 0.58 nM, 4.4 nM and 3590 nM.
Regarding `Cc1cc(-c2[nH]c3ccc(C4CCN(CC(=O)N(C)C)CC4)nc3c2C(C)C)cn2ncnc12` [Example 533], the half-inhibitory concentration (IC50) was 0.5 nM on human TLR7, 3.3 nM at human TLR8 and 1460 nM on human TLR9.
Turning to `Cc1cc(-c2[nH]c3ccc(C4CCN(C5COC5)CC4)nc3c2C(C)C)cn2ncnc12` [Example 534], the IC50 is 1.2 nM against human TLR7, 8 nM at human TLR8 and 4280 nM at human TLR9.
For `COc1cc(-c2[nH]c3ccc(C4CCN(C5COC5)CC4)nc3c2C(C)C)cn2ncnc12` [Example 535] the same measures were 2 nM, 8.6 nM and 5720 nM.
In the same order, the values of `CNC(=O)CN1CCC(c2ccc3[nH]c(-c4cc(OC)c5ncnn5c4)c(C(C)C)c3n2)CC1` [Example 536] are 0.66 nM, 4.1 nM and 2660 nM.
Regarding `COc1cc(-c2[nH]c3ccc(C4CCN(CC(=O)N(C)C)CC4)nc3c2C(C)C)cn2ncnc12` [Example 537], the results for the IC50 against human TLR7, at human TLR8 and at human TLR9 were 2.1 nM, 7.1 nM and 2850 nM, respectively.
`Cc1c(-c2[nH]c3ccc(C4CCN(C5COC5)CC4)nc3c2C(C)C)cn2ncnc2c1C` [Example 538]: the IC50 on human TLR7 worked out at 2 nM; on human TLR8, 3.3 nM; at human TLR9, 8180 nM.
For `CNC(=O)CN1CCC(c2ccc3[nH]c(-c4cn5ncnc5c(C)c4C)c(C(C)C)c3n2)CC1` [Example 539], the IC50 against human TLR7 was found to be 0.47 nM; at human TLR8, 0.82 nM; at human TLR9 it was 3320 nM.
For `Cc1c(-c2[nH]c3ccc(C4CCN(CC(=O)N(C)C)CC4)nc3c2C(C)C)cn2ncnc2c1C` [Example 540] the same measures were 1.1 nM, 1.4 nM and 1950 nM.
In the same order, the values of `Cc1c(-c2[nH]c3ccc(C4CCN(CC(C)(C)O)CC4)nc3c2C(C)C)cn2ncnc2c1C` [Example 541] are 1.2 nM, 0.36 nM and 1430 nM.
Take `Cc1c(-c2[nH]c3ccc(C4CCN(C5COC5)CC4)nc3c2C(C)C)cn(C)c(=O)c1C` [Example 542]: the IC50 on human TLR7 worked out at 24 nM; at human TLR8, 17 nM; on human TLR9 it was 9240 nM.
For the compound `Cc1c(-c2[nH]c3ccc(C4CCN(C5CCOCC5)CC4)nc3c2C(C)C)cn(C)c(=O)c1C` [Example 543], the IC50 against human TLR7 stood at 14 nM; at human TLR8 it was 5.3 nM; at human TLR9, 2280 nM.
For `CNC(=O)CN1CCC(c2ccc3[nH]c(-c4cn(C)c(=O)c(C)c4C)c(C(C)C)c3n2)CC1` [Example 544] the same measures were 11 nM, 6.4 nM and 5660 nM.
For `Cc1c(-c2[nH]c3ccc(C4CCN(CC(=O)N(C)C)CC4)nc3c2C(C)C)cn(C)c(=O)c1C` [Example 545] the same measures were 22 nM, 7.5 nM and 2460 nM.
For `Cc1c(-c2[nH]c3ccc(C4CCN(CC(C)(C)O)CC4)nc3c2C(C)C)cn(C)c(=O)c1C` [Example 546], the IC50 stood at 9.5 nM against human TLR7, 1.6 nM at human TLR8 and 1380 nM on human TLR9.
As for `Cc1cc(-c2[nH]c3ccc(C4CCN(CC(C)(C)O)CC4)nc3c2C(C)C)cn2ncnc12` [Example 547], the results for the concentration for half-maximal inhibition (IC50) against human TLR7, on human TLR8 and on human TLR9 were 0.27 nM, 0.55 nM and 789 nM, respectively.
In the case of `COc1cc(-c2[nH]c3ccc(C4CCN(CC(C)(C)O)CC4)nc3c2C(C)C)cn2ncnc12` [Example 548], the IC50 against human TLR7 was found to be 0.71 nM; at human TLR8, 0.98 nM; at human TLR9, 1090 nM.
In the same order, the values of `COc1cc(-c2[nH]c3ccc(C4CCN(C(=O)CN(C)C)CC4)nc3c2C(C)C)cn2ncnc12` [Example 549] are 1.8 nM, 18 nM and 401 nM.
For `Cc1cc(-c2[nH]c3ccc(C4CCN(C(=O)CN(C)C)CC4)nc3c2C(C)C)cn2ncnc12` [Example 550] the same measures were 0.87 nM, 15 nM and 796 nM.
For `Cc1c(-c2[nH]c3ccc(C4CCN(C(=O)CN(C)C)CC4)nc3c2C(C)C)cn2ncnc2c1C` [Example 551] the same measures were 0.94 nM, 5.5 nM and 582 nM.
For the compound `Cc1cc(-c2[nH]c3ccc(C4CCN(CCS(C)(=O)=O)CC4)nc3c2C(C)C)cn2ncnc12` [Example 552], the 50% inhibitory concentration (IC50) turned out to be 0.83 nM against human TLR7, 2.1 nM at human TLR8 and 4100 nM at human TLR9.
In the same order, the values of `Cc1cc(-c2[nH]c3ccc(C4CCN(CC#N)CC4)nc3c2C(C)C)cn2ncnc12` [Example 553] are 0.63 nM, 3.2 nM and 537 nM.
In the same order, the values of `COc1cc(-c2[nH]c3ccc(C4CCN(CCS(C)(=O)=O)CC4)nc3c2C(C)C)cn2ncnc12` [Example 554] are 1.5 nM, 2.5 nM and 2860 nM.
Take `Cc1c(-c2[nH]c3ccc(C4CCN(CCS(C)(=O)=O)CC4)nc3c2C(C)C)cn2ncnc2c1C` [Example 556]: the figures for the half-inhibitory concentration (IC50) against human TLR7, on human TLR8 and at human TLR9 were 1.7 nM, 1.1 nM and 5080 nM, respectively.
For `Cc1c(-c2[nH]c3ccc(C4CCN(CC#N)CC4)nc3c2C(C)C)cn2ncnc2c1C` [Example 557] the same measures were 0.66 nM, 1.2 nM and 440 nM.
In the same order, the values of `COc1cc(-c2[nH]c3ccc(C4CCN(CC(N)=O)CC4)nc3c2C(C)C)cn2ncnc12` [Example 558] are 1.2 nM, 5.6 nM and 3430 nM.
For `Cc1c(-c2[nH]c3ccc(C4CCN(CC(N)=O)CC4)nc3c2C(C)C)cn2ncnc2c1C` [Example 560] the same measures were 1.2 nM, 1 nM and 3820 nM.
Regarding `Cc1cc(-c2[nH]c3ccc(C4CCN(C5CCN(C)C5=O)CC4)nc3c2C(C)C)cn2ncnc12` (stereo not drawn) [Example 561], the IC50 amounted to 0.64 nM on human TLR7, 3 nM on human TLR8 and 5650 nM on human TLR9.
Turning to `COc1cc(-c2[nH]c3ccc(C4CCN(C5CCN(C)C5=O)CC4)nc3c2C(C)C)cn2ncnc12` (stereo not drawn) [Example 562], the values for the half-maximal inhibitory concentration (IC50) at human TLR7, on human TLR8 and on human TLR9 were 1.9 nM, 1.1 nM and 6480 nM, respectively.
For the compound `Cc1c(-c2[nH]c3ccc(C4CCN(C5CCN(C)C5=O)CC4)nc3c2C(C)C)cn2ncnc2c1C` (stereo not drawn) [Example 563], the half-inhibitory concentration (IC50) is 0.83 nM against human TLR7, 2.4 nM on human TLR8 and 4260 nM at human TLR9.
In the same order, the values of `CNC(=O)CN1CCC(c2ccc3[nH]c(-c4cn(C)c(=O)c(Cl)c4C)c(C(C)C)c3n2)CC1` [Example 565] are 8.8 nM, 6.9 nM and 3220 nM.
For `Cc1c(-c2[nH]c3ccc(C4CCN(C5COC5)CC4)nc3c2C(C)C)cn(C)c(=O)c1Cl` [Example 566] the same measures were 24 nM, 18 nM and 19000 nM.

As usually defined, the IC50 is the concentration at which inhibition is half-maximal.
